# Measured values: US7659267B2, “1,3-Benzothiazinone derivatives, process for producing the same use thereof” (Takeda Pharmaceutical Company Limited, priority 2002, dated 2010)
# What was measured:
# [1] = tested on: primary cardiomyocytes from newborn rats; experiment: Cardiomyocyte apoptosis inhibitory activity (serum-free culture, viable cell number by WST-8); assay type: cell-based; settings: Rattus norvegicus, 96 h, mean of three independent experiments, concentration required to increase the mean viable cell number by 50% vs. no test compound, serum-free Medium 199, 4 days, read-out: Minimum Effective Concentration
# Description: Cardiomyocyte Apoptosis Inhibitory Activity
# Newborn rats (within 1 day after birth) were obtained from pregnant Wistar rats purchased from Charles River Japan, Inc., anesthetized under ether, and sterilized with 70% ethanol. Then the heart was excised with tweezers. The excised heart was washed with a phosphate buffered saline (T900; manufactured by Takara) and cut into pieces with surgical scissors. The tissue pieces were washed 4 to 5 times with a phosphate buffered saline to remove a majority of blood-derived non-myocardial cells. To the tissue pieces derived from 10 newborns, 5 ml of enzyme solution [solution prepared by dissolving trypsin (1.25 mg)(manufactured by Difco) and collagenase (0.25 mg)(manufactured by Sigma) in phosphate buffered saline (PBS)(1 ml)] was added and the mixture was stirred with a stirrer for 15 minutes while maintaining at 37° C. After 2.5 ml of the enzyme solution was added thereto, the mixture was stirred for further 15 minutes. This procedure was repeated twice. Subsequently, Medium 199 (manufactured by Gibson) containing 10% fetal calf serum (manufactured by Biowiker) was added in a half volume of the enzyme solution to terminate the enzyme reaction. The cells were filtered through a cell strainer (manufactured by Falcon) and then centrifuged at 400×g for 5 minutes to collect the cells.
# The cells thus collected from the 10 newborns were suspended in 50 ml of Medium 199 containing 10% fetal calf serum. The suspension was plated onto 100 mm Petri dishes (manufactured by Iwaki) in a volume of 10 ml each/dish and cultured for 1 hour in a CO2 incubator set at 5% CO2 and 37° C. The cells were then recovered, filtered through a cell strainer and centrifuged at 400×g for 5 minutes to collect the primary cardiomyocytes derived from the newborn rats.
# Then, the cardiomyocytes from the newborn rats (10) were suspended in 2 ml of hypotonic solution [prepared by dissolving NH4Cl (8.29 g), KHCO3 (1.0 g), 37 mg of EDTA/2Na (disodium ethylenediaminetetraacetate)(manufactured by Dojin Chemical Laboratory) in water (1 L)] and the suspension was allowed to stand for 3 minutes to disrupt erythrocytes. After 10 ml of Medium 199 containing 10% fetal calf serum was added thereto, the mixture was centrifuged at 400×g for 5 minutes to collect the primary cardiomyocytes from newborn rats. The cells were suspended in Medium 199 containing 10% fetal calf serum. The suspension was then filtered through a cell strainer. An aliquot of the resulting cardiomyocyte suspension was taken and 0.3% trypan blue was added thereto. The mixture was mildly mixed and the number of cardiomyocytes was counted with a hemocytometer.
# The primary cardiomyocytes from the newborn rats were suspended at a density of 3×10^6 cells/ml in Medium 199 containing 10% fetal calf serum. The suspension was plated onto a 96-well plate in a volume of 0.1 ml/well, followed by incubation in a CO2 incubator set at 5% CO2 and 37° C. for a day. After the plate was stirred with a micromixer (manufactured by Taiyo Kagaku Kogyo), the medium was exchanged 3 times with serum-free Medium 199 and then test compounds were added thereto. The cells were cultured for further 4 days to induce apoptosis. Subsequently, fetal calf serum was added thereto at a concentration of 10%, and the cells were further cultured for about 17 hours in a CO2 incubator set at 5% CO2 and 37° C. The number of viable cells was determined with Cell Counting Kit (manufactured by Dojin Chemical Laboratory) using as a chromogen WST-8 [2-(2-methoxy-4-nitrophenyl)3-(4-nitrophenyl)-5-(2,4-disulfophenyl)-2H-tetrazolium, monosodium salt] to assess the cardiomyocyte apoptosis inhibitory activity.
# The experiment described above was triplicated in an independent manner.
# In the TABLE, the minimum effective concentration is defined as the concentration of the test compound required to increase the mean viable cell number by 50% as compared to that in the absence of any test compound.
# [2] = tested on: antioxidant response element (ARE) of rat glutathione S-transferase Ya subunit gene in Rat H9c2 cells; experiment: Antioxidant response element (ARE)-dependent transcriptional activation activity (luciferase reporter); assay type: cell-based; settings: concentration causing luminescence of 200% of test compound-free group (100%); H9c2 cells with pGL3-ARE reporter, about 24 hours
# Description: Antioxidant Response Element (ARE)-dependent Transcriptional Activation Activity
# (1) Construction of Luciferase Reporter Vector Bearing Antioxidant Response Element (ARE)
# ARE-containing luciferase reporter vectors pGL3-ARE and pGL3-ARE 694G were constructed based on The Journal of Biological Chemistry, 266, 11632, 1991 and The Journal of Biological Chemistry, 275, 40134, 2000, by synthesizing ARE (SEQ ID NO: 1) for rat glutathione S-transferase Ya subunit gene and mutated ARE, i.e., mutant ARE (A694G)(SEQ ID NO: 2) oligonucleotide and then transfecting them to the NheI/BglII site of pGL3-Promoter Vector (manufactured by Promega Corp.), respectively.
# (2) Assay for Antioxidant Response Element (ARE)-dependent Transcriptional Activation Activity
# Rat H9c2 cells were suspended in Dulbecco's modified Eagle's medium (10% FBS, D-MEM medium) containing […] heat-inactivated fetal calf serum in 7×10^4 cells/ml. […] After allowing to stand for 30 minutes, fluorescence levels by luciferase were determined using a WALLAC ARVO SX (manufactured by Perkin-Elmer). Taking the emitted luminescence of test compound-free group as 100%, the ARE-dependent transcriptional activation was shown in terms of the concentration of test compound, which caused to emit the luminescence of 200% (EC200: μM).
Structure (SMILES),melting point,minimal effective concentration [1] [µM],EC200 [2] [µM]
"N#Cc1cccc(-c2nc(=O)c3ccccc3s2)c1 [Example 8, 2-(3-Cyanophenyl)-4H-1,3-benzothiazin-4-one]",199.6 to 199.7 °C,0.025,–
"CC(=O)Nc1cccc(-c2nc(=O)c3ccccc3s2)c1 [Example 13, N-[3-(4-Oxo-4H-1,3-benzothiazin-2-yl)phenyl]acetamide]",–,0.062,–
"O=c1nc(-c2cccc(Br)c2)sc2ccccc12 [Example 11, 2-(3-Bromophenyl)-4H-1,3-benzothiazin-4-one]",161.6 to 161.7 °C,–,–
"O=C1NC(=C2CCC2)Sc2ccccc21 [Example 2, 2-Cyclobutylidene-2,3-dihydro-4H-1,3-benzothiazin-4-one]",146.7 to 149.4 °C,0.02,–
"CC(=O)Nc1ccc(-c2nc(=O)c3ccccc3s2)cc1 [Example 16, N-[4-(4-Oxo-4H-1,3-benzothiazin-2-yl)phenyl]acetamide]",231.4 to 231.5 °C,0.021,–
"O=C1NC(=C2CCCCC2)Sc2ccccc21 [Example 4, 2-Cyclohexylidene-2,3-dihydro-4H-1,3-benzothiazin-4-one]",145.6 to 147.1 °C,0.042,–
"O=C(O)CCc1cccc(-c2nc(=O)c3ccccc3s2)c1 [Example 7, 3-[3-(4-Oxo-4H-1,3-benzothiazin-2-yl)phenyl]propionic acid]",179.8 to 180.2 °C,–,–
"CCNc1cc(-c2nc(=O)c3ccccc3s2)ccc1C(=O)OC [compound 15, Methyl 2-(ethylamino)-4-(4-oxo-4H-1,3-benzothiazin-2-yl)benzoate]",170.8 to 178.2 °C,–,–
"CC(=O)c1ccc(-c2nc(=O)c3ccccc3s2)cc1 [Example 10, 2-(4-Acetylphenyl)-4H-1,3-benzothiazin-4-one]",197.5 to 197.6 °C,0.062,–
"O=c1nc(-c2ccccc2C(F)(F)F)sc2ccccc12 [Example 19, 2-(2-Trifluoromethylphenyl)-4H-1,3-benzothiazin-4-one]",139.6 to 139.8 °C,–,–
"O=c1nc(-c2ccc(-c3ccccc3)cc2)sc2ccccc12 [Example 18, 2-(1,1′-Biphenyl-4-yl)-4H-1,3-benzothiazin-4-one]",–,0.083,–
"O=c1nc(-c2ccc(O)cc2)sc2ccccc12 [Example 12, 2-(4-Hydroxyphenyl)-4H-1,3-benzothiazin-4-one]",275 °C (dec.),–,–
"COC(=O)c1cccc(-c2nc(=O)c3ccccc3s2)c1 [Example 21, Methyl 3-(4-oxo-4H-1,3-benzothiazin-2-yl)benzoate]",164.3 to 164.4 °C,–,–
"O=c1nc(-c2ccc(C(F)(F)F)cc2)sc2ccccc12 [Example 9, 2-(4-Trifluoromethylphenyl)-4H-1,3-benzothiazin-4-one]",122.5 to 122.6 °C,0.088,–
"CC(C)=C1NC(=O)c2ccccc2S1 [Example 5, 2-Isopropylidene-2,3-dihydro-4H-1,3-benzothiazin-4-one]",187.1 to 188.3 °C,–,–
"O=c1nc(-c2cccc(C(F)(F)F)c2)sc2ccccc12 [Example 20, 2-(3-Trifluoromethylphenyl)-4H-1,3-benzothiazin-4-one]",114.6 to 114.7 °C,–,1.5
"O=C1NC(=C2CCCC2)Sc2ccccc21 [Example 3, 2-Cyclopentylidene-2,3-dihydro-4H-1,3-benzothiazin-4-one]",190.4 to 191.4 °C,0.047,–
"COC(=O)C(Cc1cccc(-c2nc(=O)c3ccccc3s2)c1)NC(=O)c1ccccc1 (centres unmarked) [Example 22, Methyl 2-(benzoylamino)-3-[3-(4-oxo-4H-1,3-benzothiazin-2-yl)phenyl]propionate]",130.9 to 131 °C,–,–
"O=c1nc(C2CC2)sc2ccccc12 [Example 1, 2-Cyclopropyl-4H-1,3-benzothiazin-4-one]",119.5 to 119.6 °C,0.072,–
"Cc1cc(Cl)ccc1-c1nc(=O)c2ccccc2s1 [compound 14, 2-(4-Chloro-2-methylphenyl)-4H-1,3-benzothiazin-4-one]",134.1 to 134.2 °C,–,–
